≈ marks a conversion by molar mass, not a printed value. Where two headings read alike, the source gives them in different places.
Key:
DU-145 cell line = assay: MTT assay IC50 in DU-145 cell line; assay type: cell-based, human; details: called antagonist activity against SRD5A2
Method: (§1) The DU-145 cell lines and HEK293 cell lines were grown to 70% confluence in DMEM supplemented with 10% (v/v) fetal bovine serum and 1% antibiotic (100 μg/mL of streptomycin and 100 unit/mL of penicillin (P/S) at 37° C. in a 5% CO2 environment.
(§2) The half maximal inhibitory concentration (IC50) was established in the selected cell lines. The cell lines previously identified as having high endogenous expression levels of SRD5A2 were used to determine the in-vitro cytotoxic effects of Bsy1 on DU-145 and HEK293. The results were compared with the comparative compounds finasteride and dutasteride. The cytotoxic concentration and cell viability of these drugs were evaluated using the 3-(4,5-dimethylthiazol-2-yl)-2,5-diphenyl-2H-tetrazolium bromide (“MTT”) assay, using the comparative compounds as positive controls.
(§3) The study seeded cells at 1×10^4 cells/well density using a 96-well plate and incubated them for 24 hours to allow the cells to attach in a 5% CO2 incubator at 37° C. Different serial concentrations of the compounds treated the cells, 1% (v/v) DMSO/methanol in DMEM treated the control cells, and DMEM only served as a blank. Cells were stained with 100 μl of a 0.5 mg/ml MTT solution and incubated in a 5% CO2 atmosphere at 37° C. incubators for 4 hours. The medium was aspirated, and 100 μl of absolute ethanol was added to each well. The formation of […] measured all growth and chemosensitivity. Absorbance was detected spectrophotometrically at 570 nm using a reference wavelength of 630 nm. The experiments were performed in triplicate.
(§4) The dose-response from the non-linear curve (inhibitor vs normalised response—variable slope curve), plotted using GraphPad Prism V 9.3.1, was used to determine the IC50 values of these cells.
The study determined the ICs values using a non-linear curve fit with a hyperbola model (FIG. 3).

HEK293 cell line = assay: MTT assay IC50 in HEK293 cell line; assay type: cell-based, human
Method: as §1, §2, §3, §4
However, the IC50 values for Bsy1 in the HEK293 cell lines were higher than in the DU-145 cells.

[1] = tested on: HEK293 and DU-145 cell lines; assay: Selectivity index from ratio of IC50 values, normal cells vs cancer cells; assay type: cell-based, human; details: normal cells (HEK293) vs cancer cells (DU-145)
Method: The selectivity index, indicating the selectivity of a given compound between normal cells and cancer cells, was calculated from the ratio of their respective IC50 values (Equation 1).

SRD5A1 gene = assay: qPCR relative expression of SRD5A1 gene in DU-145 cell line; assay type: cell-based, human; details: DU-145, 24 hours at IC50 values
Method: as §1
(§5) The androgen-independent DU-145 cell line, treated with finasteride (0.9 nM), dutasteride (1.6 μM), and Bsy1 (0.0054 nM) for 24 hours, was measured for their SRD5A gene regulation using qPCR. […] The relative expression of the SRD5A2 gene was reduced by approximately 3-fold for finasteride and dutasteride and 2-fold for Bsy1 (FIG. 5A). However, it should be noted that the finasteride concentrations were 100-fold, and dutasteride 1000-fold, higher than the concentration of Bsy1. […] The level of inhibitory action against SRD5A1 and SRD5A2 is surprising as it is expected that that the phenyl-pyrazolo[3,4-b]pyridine-4-carboxylic acid Bsy1 and its derivates, as described herein, will show similar inhibition results. […] Experiments were repeated three times.]
(§6) A two-way ANOVA statistical analysis was conducted to compare the gene suppression levels of each drug treatment against the control (untreated), using Dunnett's correction test (DCT) (FIG. 5B). [FIG. 5B—two-way ANOVA Dunnett test of the Control vs Treatment at IC50 values. Comparison tests of control vs. drug treatment at p<0.05 for: SRD5A1 (ns); SRD5A2**; SRD5A3 (ns). […]

SRD5A2 gene [2] = assay: qPCR relative expression of SRD5A2 gene in HEK293 cell line; assay type: cell-based, human; details: for relative expression of the SRD5A2 gene increased: HEK293, 24 hours at IC50 (finasteride 1.34 nM, dutasteride 1.29 μM, Bsy1 0.02 nM)
Method: as §1
Experiments were repeated three times.]
The two-way ANOVA compared the expression levels of the SRD5A genes and between the different drugs in HEK293 cell lines (FIG. 6 B). […] Data were expressed for each bar as means±standard error of mean ****P≤0.0001 from control.

[3] = Solubility, miniaturised shake-flask method; assay type: physicochemical; details: aqueous buffer, thermodynamic from solid, pH 7.4 as headed, phosphate buffer, 25° C.
Method: […] Briefly, 4 μl of a 10 mM stock in DMSO was added to a 96-well plate and evaporated using a GeneVac system. […] At the end of this incubation, the samples were centrifuged at 3500 g for 15 min then transferred to an analysis plate. A calibration curve in DMSO for each sample between 10-220 μM was prepared and included in the analysis plate. Analysis was then performed by LC-MS (Agilent Rapid Resolution HPLC, AB SCIEX 4500 MS) and solubility of each sample determined from the corresponding calibration curve.

[4] = Plasma protein binding by ultracentrifugation; assay type: in vitro ADME; details: mouse, read-out: Mouse PPB (converted)
[5] = Mouse hepatocyte stability
Method: (§7) Hepatocyte stability was performed using a 5-point assay design using cryopreserved hepatocytes in suspension. Briefly, the compounds (1 μM) were incubated at 37° C. in human (Hepatosure 100-donor pool, XenoTech LLC) and mouse (Cryostax mouse CD1, XenoTech LLC) hepatocytes (500,000 cells/ml) for various timepoints over 120 min. Reactions were quenched by adding ice-cold acetonitrile containing internal standard. The samples were then centrifuged, and the samples analysed by LC-MS/MS (Agilent Rapid Resolution HPLC, AB SCIEX 4500 MS) for the disappearance of parent compound. Half-life, clearance and hepatic excretion ratios were determined using standard equations.
(§8) The CLint,app value can be used to calculate a predicted in vivo value by factoring in scaling factors (number of hepatocytes per gram of liver and grams of liver per kg body weight) and binding (measured plasma protein binding and estimated incubational binding). The predicted mouse and human clearance values represent the total hepatic clearances that would be expected for these compounds in vivo.

[6] = Human hepatocyte stability
Method: as §7, §8

SRD5A2 gene [7] = assay: qPCR relative expression of SRD5A2 gene in DU-145 cell line; assay type: cell-based, human; details: DU-145, 24 hours at IC50 (finasteride 0.9 nM, dutasteride 1.6 μM, Bsy1 0.0054 nM)
Method: as §1, §5, §6

[8] = CD1, mouse, 1 μM
Method: as §7, §8

[9] = 1 μM
Method: as §7, §8

SRD5A2 = biological target: T1, SRD5A2 (Homo sapiens, UniProt P31213); details: cited from earlier work
T1 sequence (P31213 1-254): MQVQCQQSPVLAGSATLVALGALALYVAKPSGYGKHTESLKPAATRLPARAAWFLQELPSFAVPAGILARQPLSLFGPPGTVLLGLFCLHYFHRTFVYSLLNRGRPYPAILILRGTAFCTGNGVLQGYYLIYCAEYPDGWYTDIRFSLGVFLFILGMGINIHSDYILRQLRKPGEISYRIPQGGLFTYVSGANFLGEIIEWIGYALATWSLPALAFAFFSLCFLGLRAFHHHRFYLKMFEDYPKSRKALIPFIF

in vitro [10] = details: CD1, mouse, hepatocytes
Method: as §7, §8

in vitro [11] = details: human, hepatocytes
Method: as §7, §8

[12] = Homo sapiens, HEK293, HEK293 cell line, called antagonist activity against SRD5A2, read-out: IC50
[13] = Homo sapiens, DU-145, DU-145 cell line

For `O=C1C=C(C(=O)O)C2C(C3CC3)=NN(c3ccc(F)cc3)C2N1` (centres unmarked) [Bsy1, 3-cyclopropyl-1-(4-fluorophenyl)-6-oxo-3a,6,7,7a-tetrahydro-1H-pyrazolo[3,4-b]pyridine-4-carboxylic acid], the IC50 (DU-145 cell line; DU-145 cell line) was 5400 nM, the IC50 (HEK293 cell line; [12]) was 0.02 nM and the “SELECTIVITY INDEX” value [1] was 3.7. The SRD5A1 suppression (SRD5A1 gene) was “comparable”, the “relative expression of the SRD5A2 gene increased” value (SRD5A2 gene [2]) was “approximately 2 fold” and the solubility at 24 h [3] was > 200 µM. The fraction unbound at 4 h, 10 μM [4] was 0.95, the hepatocyte CLint at 1 μM ([5]; CD1, mouse, cryopreserved hepatocytes in suspension) was < 6.4 µL/min/1e6 cells and the hepatic clearance classification ([5]; mouse, predicted clearance below 30% of liver blood flow 126 ml/min/kg) was “low hepatic clearance”. The “Predicted mouse Clearance” value ([5]; scaled from mouse hepatocyte CLint,app) was <13.8 mL/min/kg, the hepatocyte CLint at 1 μM ([6]; human, cryopreserved hepatocytes in suspension) was 4.1 µL/min/1e6 cells and the hepatic clearance classification ([6]; human, predicted clearance below 30% of liver blood flow 20.7 ml/min/kg) was “low hepatic clearance”. For the same molecule, the “Predicted human Clearance” value ([6]; scaled from human hepatocyte CLint,app) was 6.7 mL/min/kg.
With `O=C1C=C(C(=O)O)C2C(C3CC3)=NN(c3ccc(Br)cc3)C2N1` (centres unmarked) [Bsy2, 1-(4-bromophenyl)-3-cyclopropyl-6-oxo-3a,6,7,7a-tetrahydro-1H-pyrazolo[3,4-b]pyridine-4-carboxylic acid] the solubility at 24 h [3] was 195 µM (≈ 73.4 µg/mL).
For `O=C1C=C(C(=O)O)C2C(C3CC3)=NN(c3ccc(Cl)cc3)C2N1` (centres unmarked) [Bsy3, 1-(4-chlorophenyl)-3-cyclopropyl-6-oxo-3a,6,7,7a-tetrahydro-1H-pyrazolo[3,4-b]pyridine-4-carboxylic acid], the solubility at 24 h [3] was 190 µM (≈ 63 µg/mL).
In the case of `O=C1C=C(C(=O)O)C2C(C3CC3)=NN(c3ccccc3F)C2N1` (centres unmarked) [Bsy4, 3-cyclopropyl-1-(2-fluorophenyl)-6-oxo-3a,6,7,7a-tetrahydro-1H-pyrazolo[3,4-b]pyridine-4-carboxylic acid], the solubility at 24 h [3] is reported as > 200 µM.
In the case of `O=C1C=C(C(=O)O)C2C(C3CC3)=NN(c3cccc(F)c3)C2N1` (centres unmarked) [Bsy5, 3-cyclopropyl-1-(3-fluorophenyl)-6-oxo-3a,6,7,7a-tetrahydro-1H-pyrazolo[3,4-b]pyridine-4-carboxylic acid], the solubility at 24 h [3] is reported as > 200 µM.
With `COc1ccc(N2N=C(C3CC3)C3C(C(=O)O)=CC(=O)NC32)cc1` (centres unmarked) [Bsy6, 3-cyclopropyl-1-(4-methoxyphenyl)-6-oxo-3a,6,7,7a-tetrahydro-1H-pyrazolo[3,4-b]pyridine-4-carboxylic acid] the solubility at 24 h [3] was 120 µM (≈ 39.3 µg/mL).
`C[C@]12C=CC(=O)N[C@@H]1CC[C@@H]1[C@@H]2CC[C@]2(C)[C@@H](C(=O)Nc3cc(C(F)(F)F)ccc3C(F)(F)F)CC[C@@H]12` [Dutasteride] gave an IC50 (DU-145 cell line; DU-145 cell line) of 1670 ± 1850 nM, an IC50 (DU-145 cell line; [13]) of 1600 nM and an IC50 (HEK293 cell line; HEK293 cell line, called antagonist activity against SRD5A2) of 1210 ± 1370 nM. The IC50 (HEK293 cell line; Homo sapiens, HEK293, HEK293 cell line, called antagonist activity against SRD5A2) was 1290 nM, the “SELECTIVITY INDEX” value [1] was 0.81 and the “relative expression of the SRD5A2 gene reduced” value (SRD5A2 gene [7]) was “approximately 3 fold”. For the same molecule, the “relative expression of the SRD5A2 gene increased” value (SRD5A2 gene [2]) was “approximately 2 fold”.
Molecule `CC(C)(C)NC(=O)[C@H]1CC[C@H]2[C@@H]3CC[C@H]4NC(=O)C=C[C@]4(C)[C@H]3CC[C@]12C` [Finasteride] has an IC50 (DU-145 cell line; DU-145 cell line) of 0.72 ± 1.09 nM, an IC50 (DU-145 cell line; [13]) of 0.9 nM and an IC50 (HEK293 cell line; HEK293 cell line, called antagonist activity against SRD5A2, read-out: IC50) of 1.24 ± 1.43 nM. The IC50 (HEK293 cell line; [12]) was 1.34 nM, the “SELECTIVITY INDEX” value [1] was 1.49 and the “relative expression of the SRD5A2 gene reduced” value (SRD5A2 gene [7]) was “approximately 3 fold”. For the same molecule, the SRD5A1 suppression (SRD5A1 gene) was “comparable”, the “relative expression of the SRD5A2 gene increased” value (SRD5A2 gene [2]) was ~0.75 fold and the “SRD5A2 expression, drug treatment vs untreated, two-way ANOVA Dunnett test” value (SRD5A2 gene [2]; HEK293, IC50 values) was “ns”. For the same molecule, the solubility at 24 h [3] was > 200 µM, the fraction unbound at 4 h, 10 μM [4] was 0.27 and the “Predicted mouse Clearance” value [8] was 10.6 mL/min/kg. The “Predicted human Clearance” value [9] was 3.3 mL/min/kg, the “selectivity for SRD5A2 than SRD5A1” value (SRD5A2) was 100 fold and the hepatocyte CLint at 1 μM (in vitro [10]) was 13.8 µL/min/1e6 cells. For the same molecule, the hepatocyte CLint at 1 μM (in vitro [11]) was 4.5 µL/min/1e6 cells.

Source: patent US20260199301A1, “PHENYL-PYRAZOLO[3,4-B]PYRIDINE-4-CARBOXYLIC ACID DERIVATES FOR USE AS 5-ALPHA REDUCTASE ANTAGONISTS IN METHODS OF TREATMENT” (UNIVERSITY OF CAPE TOWN, priority 2022, published 2026)
